Laboratory results taken from patent publication US20220033490A1 (priority 2018, published 2022).

Target: T1, α6*nAChR (Homo sapiens, UniProt Q15825)
T1 construct: endogenous in cells; host or cells: human inducible Tregs (from naïve CD4+ T cells of PBMCs) co-cultured with autologous CD8+ T cells
Type: cell-based

T1 sequence (Q15825 26-494): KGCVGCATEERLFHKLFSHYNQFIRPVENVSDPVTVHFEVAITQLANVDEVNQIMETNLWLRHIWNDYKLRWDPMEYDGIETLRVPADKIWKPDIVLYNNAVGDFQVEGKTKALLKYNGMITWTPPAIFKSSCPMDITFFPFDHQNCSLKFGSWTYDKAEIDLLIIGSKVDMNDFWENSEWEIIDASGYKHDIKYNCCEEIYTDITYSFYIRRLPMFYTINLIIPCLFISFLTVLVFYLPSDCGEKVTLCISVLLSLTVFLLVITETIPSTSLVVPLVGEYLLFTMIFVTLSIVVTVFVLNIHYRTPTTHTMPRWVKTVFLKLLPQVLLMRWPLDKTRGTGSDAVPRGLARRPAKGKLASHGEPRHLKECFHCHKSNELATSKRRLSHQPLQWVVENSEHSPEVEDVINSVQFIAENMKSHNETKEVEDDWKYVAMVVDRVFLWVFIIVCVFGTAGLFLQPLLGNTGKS

Compound | IFNγ+CD8+ T-cells in co-culture | IFNγ+CD8+ T cells in co-culture
CN1CCCC1c1cccnc1 (centres unmarked) [nicotine] | trend of decreasing IFNγ+CD8+ T-cells | –
alpha-conotoxin PIA [[…]-conotoxin PIA] | – | trend of increasing IFNγ+CD8+ T cells
